Measured values taken from patent publication US20160376374A1, “ANTIBODIES TO CEACAM1 AND KINASE INHIBITORS FOR TREATING BRAF-MUTATED CELLS” (TEL HASHOMER MEDICAL RESEARCH INFRASTRUCTURE AND SERVICES …, priority 2014, published 2016).

Key:
[1] = test system: B-Raf V600E (624mel, sk-mel-5) cells; experiment: MAPK activity by immunoblotting for phosphorylated ERK1/2, B-Raf V600E cells; type: cell-based
Protocol: (§1) MAPK activity was measured in B-Raf V600E (624mel, sk-mel-5) and B-Raf W.T. (076mel, 013mel) cell samples by immunoblotting for phosphorylated ERK1/2 (pERK, Thr202/Tyr204), total ERK1/2 and actin after 48 hours of exposure to vemurafenib (1 μM).
(§2) MAPK activity was measured in vemurafenib-sensitive and vemurafenib-resistant B-Raf V600E (624mel) cell samples by immunoblotting for phosphorylated ERK1/2 (pERK, Thr202/Tyr204), total ERK1/2 and actin after 24 hours of exposure to 160 nM vemurafenib.

[2] = test system: B-Raf W.T. (076mel, 013mel) cells; experiment: MAPK activity by immunoblotting for phosphorylated ERK1/2, B-Raf W.T. cells; type: cell-based; settings: B-Raf W.T. cells 076mel, 1 μM, 48 hours, FIG. 2
Protocol: as §1

[3] = test system: vemurafenib-resistant B-Raf V600E (624mel) cells; experiment: MAPK activity by immunoblotting for phosphorylated ERK1/2, vemurafenib-resistant cells; type: cell-based; settings: vemurafenib-resistant 624mel; 160 nM, 24 hours; FIG. 4B
Protocol: Two vemurafenib-sensitive B-Raf V600E cell samples (526mel, 624mel) and vemurafenib-resistant cell lines derived therefrom were incubated for 2 days with 1 μM vemurafenib. Cells were then analyzed for CEACAM1 protein expression by FACS as described above. Vemurafenib-resistant cell lines were generated by gradual increase of the inhibitor's concentration in culture, up to 0.32 μM.
as §2

[4] = test system: CEACAM1 expression on B-Raf V600E cells (526mel, 624mel); experiment: CEACAM1 expression on cells by FACS, mutated B-Raf cells; type: cell-based, human
Protocol: Total RNA was extracted from 1.0*10^6 melanoma cells with TRIZOL. cDNA was generated with standard reverse transcriptase. Real time PCR was performed with CEACAM1-specific primers and compared to glyceraldehyde 3-phosphate dehydrogenase (GAPDH) tested as a control. Cycle threshold (Ct) values above 36 were considered as minimal or no expression. B-Raf genotype was determined by direct sequencing of amplified fragment from genomic DNA that contains the codon for position 600 of the B-Raf protein. Statistical analysis of the correlation between CEACAM1 expression (negative or positive) with the mutation status (positive=V600E, or negative=wild type) was performed by Fisher exact test.
Cells were then tested for CEACAM1 expression using MRG1 (murine antibody to human CEACAM1) in flow cytometry as described above. Total RNA was extracted with TRIZOL and cDNA was generated with a reverse transcriptase, according to routine protocols.

[5] = test system: CEACAM1 expression on B-Raf W.T. cells (076mel); experiment: CEACAM1 expression on cells by FACS, W.T. B-Raf cells; type: cell-based, human; settings: 076mel (W.T. B-Raf); 0.1 μM and 1 μM, 2 to 48 hours; FIG. 3A
[6] = test system: B-Raf V600E 526mel melanoma cells; experiment: Determined IC50 of vemurafenib used to generate resistant melanoma cells; type: cell-based
Protocol: B-Raf V600E 526mel melanoma cells were cultured in the presence of 1 μM vemurafenib. Cultivation was performed in RPMI 1640 supplemented with 1 mM Na-Pyruvate, 1 mM Pen-Strep, 1 mM L-Glutamine, 1 mM non-essential amino acids, and 10% heat inactivated fetal calf serum. […] Cells were then tested for CEACAM1 expression using MRG1 (murine antibody to human CEACAM1) in flow cytometry as described above. Total RNA was extracted with TRIZOL and cDNA was generated with a reverse transcriptase, according to routine protocols.

[7] = test system: B-Raf V600E cell samples (526mel, 624mel) with cytotoxic T cells; experiment: Killing of melanoma cells by cytotoxic T cells, LDH release; type: cell-based; settings: pre-incubated with 1 μM, overnight, effector-target ratio 5:1, FIG. 7
Protocol: Melanoma cells were pre-incubated with 1 μM vemurafenib and then co-incubated overnight with HLA-A2 matched antigen-matched T cells in effector-target ratio of 5:1. Cell killing was determined by LDH release.

[8] = test system: CEACAM1 expression on sk-mel-2 cells (W.T. B-Raf, mutated N-Ras); experiment: CEACAM1 expression on cells by FACS, W.T. B-Raf / mutated N-Ras cells; settings: sk-mel-2 (W.T. B-Raf, mutated N-Ras); 1 μM; FIG. 3C
Protocol: At each time point, CEACAM1 expression on the cells was determined by FACS. Volume equivalents of DMSO (vehicle) were used as control.

With `CCCS(=O)(=O)Nc1ccc(F)c(C(=O)c2c[nH]c3ncc(-c4ccc(Cl)cc4)cc23)c1F` [vemurafenib, N-(3-{[5-(4-chlorophenyl)-1H-pyrrolo[2,3-b]pyridin-3-yl]carbonyl}-2,4-difluorophenyl)propane-1-sulfonamide] the “phosphorylation of ERK1/2 (pERK, Thr202/Tyr204)” value ([1]; B-Raf V600E cells 624mel, sk-mel-5, 1 μM, 48 hours, FIG. 2) was “almost completely abolishes the phosphorylation of ERK1/2”, the “phosphorylation of ERK1/2 (pERK, Thr202/Tyr204)” value ([1]; vemurafenib-sensitive 624mel, 160 nM, 24 hours, FIG. 4B) was “almost completely abolishes the phosphorylation of ERK1/2” and the “phosphorylation of ERK1/2 (pERK, Thr202/Tyr204)” value [2] was “no substantial effect”. The “MAPK activity (phosphorylated ERK1/2)” value [3] was “practically uninterrupted”, the “CEACAM1 expression levels on cells” value ([4]; 526mel, 624mel (mutated B-Raf), 0.1 μM and 1 μM, 2 to 48 hours, FIG. 3A-B) was “dose-dependent effect” and the CEACAM1 expression ([4]; B-Raf V600E 526mel melanoma cells, 1 μM, flow cytometry with MRG1, FIG. 5) was “down regulates CEACAM1 expression”. For the same compound, the “CEACAM1 expression levels on cells” value [5] was “did not have any effect”, the IC50 [6] was 0.64 nM and the “sensitization of melanoma cells to cytotoxic T cells (cell killing by LDH release)” value [7] was “significantly sensitizes melanoma cells to cytotoxic T cells”. For the same compound, the “CEACAM1 expression levels on cells” value [8] was “no effect”.
